Measured values taken from the NIST ThermoML archive (doi:10.1021/je900503p).

Experiments:
[1] = xn = mol fraction of the nth substance listed; settings: 101 kPa, Liquid
[2] = refractive index (Na D-line) (dimensionless); xn = mol fraction of the nth substance listed; settings: 293.15 K, 101 kPa, Liquid

O=C1CCCO1 [γ-butyrolactone] + CCCCO
mass density [kg/m3], [1]
Settings	293.15 K	298.15 K	303.15 K	313.15 K
x1 = 0.0786	831.12	827.22	823.57	816.82
x1 = 0.1555	852.82	848.94	845.28	839.3
x1 = 0.2466	879.28	875.32	871.63	866.62
x1 = 0.2901	892.18	888.19	884.43	879.94
x1 = 0.3664	915.23	911.2	907.36	903.64
x1 = 0.4332	935.89	931.77	927.87	924.87
x1 = 0.4988	956.54	952.35	948.38	946.17
x1 = 0.5616	976.71	972.46	968.43	966.89
x1 = 0.6336	1000.34	996.03	991.92	991.1
x1 = 0.7033	1023.73	1019.35	1015.09	1015.08
x1 = 0.7956	1055.39	1050.92	1046.55	1047.44
x1 = 0.8654	1080.09	1075.34	1070.81	1072.54
x1 = 0.9334	1104.36	1099.62	1094.88	1097.32
x1 = 0.9888	1124.69	1119.77	1114.92	1118.1

[2]
Settings	refractive index
x1 = 0.1098	1.4026
x1 = 0.2154	1.4063
x1 = 0.3009	1.4096
x1 = 0.4127	1.4136
x1 = 0.5088	1.4172
x1 = 0.6124	1.4213
x1 = 0.7001	1.4247
x1 = 0.8133	1.4294
